The values below come from PubChem BioAssay (NCI).

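Method: 48-hour compound exposure of cells in 96-well plates, five concentrations, linear interpolation of endpoints. GI50: concentration for 50% inhibition of growth. TGI: concentration producing complete growth inhibition.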

Among the test systems are OVCAR-5 ovarian; A498 renal; SF-295 CNS; SK-MEL-5 melanoma; SF-268 CNS; SNB-75 CNS; M14 melanoma; MOLT-4 leukemia; MCF7 breast; LOX IMVI melanoma.
Assay in all cases: NCI-60 cell line screen, 48 h

For the compound `CS(=O)(=O)OCc1c(O)c2c(c(O)c1COS(C)(=O)=O)C(=O)C=CC2=O`, the TGI in the experiment on OVCAR-5 ovarian, with A498 renal, in the experiment on SF-295 CNS, in the experiment on SK-MEL-5 melanoma, in the experiment with SF-268 CNS and in the experiment on SNB-75 CNS was more than 100 µM in each case. The TGI with M14 melanoma and with MOLT-4 leukemia was more than 100 µM throughout.

Consider `Cc1ccc(S(=O)(=O)NCCSS(=O)(=O)c2ccc(C)cc2)cc1`, for which the TGI was 67.2 µM in the experiment with A498 renal; more than 100 µM with SF-295 CNS; 43.1 µM in the experiment on SK-MEL-5 melanoma; 46.3 µM in the experiment with SF-268 CNS; 41 µM in the experiment on MCF7 breast; 77.2 µM in the experiment on SNB-75 CNS. Moreover, the TGI is 53.5 µM in the experiment with LOX IMVI melanoma and more than 100 µM in the experiment with MOLT-4 leukemia.

On to `O=C(/N=C/c1c(O)c2ccccc2oc1=O)NC1CCCCC1`, for which the TGI in the experiment with OVCAR-5 ovarian, in the experiment on SK-MEL-5 melanoma, in the experiment on SF-268 CNS, in the experiment with LOX IMVI melanoma, with M14 melanoma and with MOLT-4 leukemia was more than 100 µM throughout.

Regarding `CC(C)Cc1cccc(C(C)C)c1NC(=O)CCC(=O)N/N=C1\C(=N/NC(=O)CCC(=O)Nc2c(C(C)C)cccc2C(C)C)C(c2ccc3c(c2)OCO3)Oc2ccccc21` (stereo not given), the TGI with OVCAR-5 ovarian, in the experiment on A498 renal, with SF-295 CNS, in the experiment on SK-MEL-5 melanoma, in the experiment with SF-268 CNS and with SNB-75 CNS was more than 100 µM throughout. The TGI in the experiment on LOX IMVI melanoma, in the experiment with M14 melanoma and with MOLT-4 leukemia was more than 100 µM in each case.

On to `CN(C)CCC(C(=O)C(C)(C)C)c1ccccn1` (stereo not given), for which the TGI in the experiment with OVCAR-5 ovarian, with A498 renal, with SF-295 CNS, with SK-MEL-5 melanoma, with SF-268 CNS and with MCF7 breast was more than 100 µM each time. Further, the TGI with SNB-75 CNS, in the experiment with LOX IMVI melanoma and with M14 melanoma was more than 100 µM each time.

On to `O=c1cc(-c2nc3ccccc3[nH]2)[nH]c2nc(-c3nc4ccccc4[nH]3)cc(-c3ccc(Cl)cc3)c12`, for which the TGI in the experiment on OVCAR-5 ovarian was 54.3 µM; in the experiment on SF-295 CNS, 48.2 µM; in the experiment with SK-MEL-5 melanoma, 30.9 µM; in the experiment with SF-268 CNS, 47.5 µM; in the experiment on MCF7 breast, 36.3 µM; with LOX IMVI melanoma, 31.8 µM. Moreover, the TGI in the experiment on M14 melanoma is 62.5 µM; with MOLT-4 leukemia, 96.4 µM.

On to `ClCC1(CCl)COC1`, for which the TGI in the experiment on A498 renal, with SF-295 CNS, in the experiment on SK-MEL-5 melanoma, in the experiment with SF-268 CNS, in the experiment on MCF7 breast and in the experiment with SNB-75 CNS was more than 100 µM throughout. In addition, the TGI in the experiment with LOX IMVI melanoma, in the experiment with M14 melanoma and with MOLT-4 leukemia was more than 100 µM each time.

`C[C@H](O)C(=O)SC[C@H](NC(=O)CC[C@@H](N)C(=O)O)C(=O)NCC(=O)O`: the TGI in the experiment on OVCAR-5 ovarian, in the experiment on SF-295 CNS, in the experiment with SK-MEL-5 melanoma, in the experiment with SF-268 CNS, in the experiment with SNB-75 CNS and with LOX IMVI melanoma was more than 100 µM throughout. For the same compound, the TGI in the experiment on M14 melanoma and in the experiment with MOLT-4 leukemia was more than 100 µM in each case.

For `COc1ccc(-n2cc(-c3ccc(OC)c(OC)c3)nc2SCc2ccccc2)cc1Cl`, the GI50 in the experiment on A498 renal is 22.3 µM; in the experiment with SF-295 CNS, 17.4 µM; in the experiment on SK-MEL-5 melanoma, 5.78 µM; in the experiment with SF-268 CNS, 30.4 µM; in the experiment on MCF7 breast, 24 µM; in the experiment on SNB-75 CNS it was 27.4 µM. The GI50 was 34.7 µM with LOX IMVI melanoma, 26 µM with M14 melanoma and 21.2 µM with MOLT-4 leukemia. Besides, the TGI in the experiment on A498 renal was more than 100 µM; in the experiment with SF-295 CNS, more than 100 µM; with SK-MEL-5 melanoma, 18.6 µM; in the experiment on SF-268 CNS, more than 100 µM; with MCF7 breast it was more than 100 µM; with SNB-75 CNS, more than 100 µM. Moreover, the TGI in the experiment on LOX IMVI melanoma, with M14 melanoma and in the experiment with MOLT-4 leukemia was more than 100 µM in each case.

With `FC(F)(F)C1=NC(=NNc2nnc(-c3ccccc3)c(-c3ccccc3)n2)N=C(C(F)(F)F)C1`, the TGI in the experiment with OVCAR-5 ovarian is more than 100 µM; with A498 renal, more than 100 µM; in the experiment with SF-295 CNS it was more than 100 µM; in the experiment on SK-MEL-5 melanoma, more than 66 µM; with SF-268 CNS it was more than 100 µM; in the experiment on MCF7 breast, more than 100 µM. In addition, the TGI with SNB-75 CNS, in the experiment with LOX IMVI melanoma and with MOLT-4 leukemia was more than 100 µM throughout.

Turning to `C=C1C(=O)OC2/C=C(\C)CC(O)/C=C(/CO)CC(OC(=O)/C(C)=C/C)C12` (stereo not given), the TGI was found to be 297 µM with OVCAR-5 ovarian; 58.4 µM with A498 renal; 401 µM in the experiment on SF-295 CNS; 44.1 µM with SK-MEL-5 melanoma; 233 µM in the experiment with SF-268 CNS; 68.2 µM with MCF7 breast. The TGI is 417 µM in the experiment on SNB-75 CNS and 43.8 µM with MOLT-4 leukemia.
